Data from the supplement of paper PMC10307832.

What was measured:
Assay in all cases: relative viability (nuclei count vs DMSO), 5 days (fraction); higher = more cells survive
IPA-3 + Foretinib = compound: C1=CC=C2C(=C1)C=CC(=C2SSC3=C(C=CC4=CC=CC=C43)O)O [IPA-3] + COc1cc2c(Oc3ccc(NC(=O)C4(C(=O)Nc5ccc(F)cc5)CC4)cc3F)ccnc2cc1OCCCN1CCOCC1 [Foretinib] (partner 0.25 µM)
Method in brief: (§1)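 Lung cancer cell lines, seeded in 1536-well plates, were treated the following day by pin tool with a single drug or with five library-drug doses (not always all listed) in √10 steps on top of a fixed anchor-drug dose. Cells were fixed and nuclei stained in one step after 5 days, and nuclei were counted. Relative viability is the nuclei count for treated wells divided by that for vehicle wells, reported as medians of duplicate plates.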

IPA-3 + Lapatinib = compound: C1=CC=C2C(=C1)C=CC(=C2SSC3=C(C=CC4=CC=CC=C43)O)O [IPA-3] + CS(=O)(=O)CCNCc1ccc(-c2ccc3ncnc(Nc4ccc(OCc5cccc(F)c5)c(Cl)c4)c3c2)o1 [Lapatinib] (partner 2 µM)
Method in brief: as §1

Doramapimod + Tozasertib = compound: Cc1ccc(-n2nc(C(C)(C)C)cc2NC(=O)Nc2ccc(OCCN3CCOCC3)c3ccccc23)cc1 [Doramapimod] + Cc1cc(Nc2cc(N3CCN(C)CC3)nc(Sc3ccc(NC(=O)C4CC4)cc3)n2)n[nH]1 [Tozasertib] (partner 0.1 µM)
Method in brief: as §1

Doramapimod + Decitabine = compound: Cc1ccc(-n2nc(C(C)(C)C)cc2NC(=O)Nc2ccc(OCCN3CCOCC3)c3ccccc23)cc1 [Doramapimod] + Nc1ncn([C@H]2C[C@H](O)[C@@H](CO)O2)c(=O)n1 [Decitabine] (partner 2 µM)
Method in brief: as §1

| Cell Line | relative viability (IPA-3 + Foretinib; first compound 0.2 µM) | relative viability (IPA-3 + Foretinib; first compound 0.6325 µM) | relative viability (IPA-3 + Foretinib; first compound 2 µM) | relative viability (IPA-3 + Foretinib; first compound 6.325 µM) | relative viability (IPA-3 + Foretinib; first compound 20 µM) | relative viability (IPA-3 + Lapatinib; first compound 0.2 µM) | relative viability (IPA-3 + Lapatinib; first compound 0.6325 µM) | relative viability (IPA-3 + Lapatinib; first compound 2 µM) | relative viability (IPA-3 + Lapatinib; first compound 6.325 µM) | relative viability (IPA-3 + Lapatinib; first compound 20 µM) | relative viability (Doramapimod + Tozasertib; first compound 0.02 µM) | relative viability (Doramapimod + Tozasertib; first compound 0.06325 µM) | relative viability (Doramapimod + Tozasertib; first compound 0.2 µM) | relative viability (Doramapimod + Tozasertib; first compound 0.6325 µM) | relative viability (Doramapimod + Tozasertib; first compound 2 µM) | relative viability (Doramapimod + Decitabine; first compound 0.02 µM) | relative viability (Doramapimod + Decitabine; first compound 0.06325 µM) | relative viability (Doramapimod + Decitabine; first compound 0.2 µM) | relative viability (Doramapimod + Decitabine; first compound 0.6325 µM) | relative viability (Doramapimod + Decitabine; first compound 2 µM) |
| --- | --- | --- | --- | --- | --- | --- | --- | --- | --- | --- | --- | --- | --- | --- | --- | --- | --- | --- | --- | --- |
| NCI-H647 | 1.36 | 1.26 | 1.08 | 1.03 | 1.12 | 1.71 | 1.02 | 0.876 | 0.335 | 0.0724 | 0.317 | 0.288 | 0.328 | 0.24 | 0.327 | 0.44 | 0.331 | 0.39 | 0.418 | 0.365 |
| NCI-H650 | 1.11 | 0.97 | 1.11 | 1.03 | 1.2 | 1.22 | 0.955 | 0.802 | 0.857 | 1.3 | 0.757 | 0.823 | 0.804 | 0.798 | 0.654 | 0.326 | 0.339 | 0.35 | 0.323 | 0.325 |
| NCI-H661 | 1.01 | 0.988 | 0.995 | 0.964 | 0.997 | 0.445 | 0.472 | 0.584 | 0.447 | 0.537 | 0.36 | 0.353 | 0.342 | 0.366 | 0.346 | 0.563 | 0.564 | 0.63 | 0.631 | 0.492 |
| NCI-H727 | 0.898 | 0.81 | 1.17 | 0.615 | 0.73 | 1.15 | 0.832 | 0.915 | 0.952 | 0.796 | 0.633 | 0.644 | 0.559 | 0.702 | 0.536 | 0.855 | 0.852 | 0.999 | 0.736 | 0.767 |
| NCI-H838 | 1.22 | 1 | 1.1 | 1.03 | 1.14 | 1.55 | 0.964 | 0.941 | 1.01 | 1.07 | 0.299 | 0.27 | 0.285 | 0.253 | 0.257 | 0.455 | 0.477 | 0.499 | 0.476 | 0.472 |
| NCI-H1355 | 1 | 0.953 | 1.02 | 0.946 | 1.08 | 1.11 | 0.968 | 0.941 | 0.966 | 1.01 | 0.543 | 0.538 | 0.55 | 0.556 | 0.495 | 0.372 | 0.357 | 0.347 | 0.407 | 0.359 |
| NCI-H1395 | 1.07 | 0.901 | 0.98 | 0.934 | 1.02 | 0.994 | 0.86 | 0.903 | 0.999 | 1.29 | 0.765 | 0.778 | 0.783 | 0.761 | 0.717 | 0.745 | 0.722 | 0.71 | 0.682 | 0.64 |
| NCI-H1437 | 1.37 | 1.23 | 1.32 | 1.2 | 1.35 | 1.34 | 0.774 | 0.802 | 0.726 | 0.825 | 0.416 | 0.431 | 0.394 | 0.404 | 0.401 | 0.541 | 0.554 | 0.647 | 0.624 | 0.598 |
